Source: US10781200B2, “Therapeutic inhibitory compounds” (Attune Pharmaceuticals, Inc., priority 2016, dated 2020)

Assay: Pharmacokinetic study, oral exposure in rats
Assay type: in vivo
Details: male Sprague-Dawley rats, single oral dose 10 mg/kg, plasma
Method: Pharmacokinetic studies of select compounds were performed to assess the pharmacokinetic properties. Male Sprague-Dawley rats were administered a single oral dose of the test compound at 10 mg/kg (dose concentration: 2 mg/mL, dose volume: 5 ml/kg) via oral gavage. Blood samples were collected via jugular vein at pre-dose, post-dose 5 min, 15 min, 30 min, 1 h, 2 h, 4 h, 6 h, 8 h, 10 h and 24 h, and centrifuged (8000 rpm for 6 minutes at 2-8° C.). The resulting plasma fractions were analyzed by LC/MS/MS to determine the concentration of the test compound.

**Q.** Which AUC does the source give for `Cc1cc(N)nc(C)c1CNC(=O)c1c[nH]c(Cc2ccc3ncc(Cl)cc3c2)n1` [Example 5, N-((6-amino-2,4-dimethylpyridin-3-yl)methyl)-2-((3-chloroquinolin-6-yl)methyl)-1H-imidazole-5-carboxamide] here?
**A.** BLQ

**Q.** For `Cc1cc(N)nc(C)c1CNC(=O)c1cn(Cc2ccc3ncc(Cl)cc3c2)c2ccncc12` [Example 35, N-((6-amino-2,4-dimethylpyridin-3-yl)methyl)-1-((3-chloroquinolin-6-yl)methyl)-1H-pyrrolo[3,2-c]pyridine-3-carboxamide], which AUC is on record?
**A.** BLQ

**Q.** For `Cc1cc(N)nc(C)c1CNC(=O)c1cn(Cc2ccc3ncc(Cl)cc3c2)c2cnc(C#N)cc12` [Example 134, N-((6-amino-2,4-dimethylpyridin-3-yl)methyl)-1-((3-chloroquinolin-6-yl)methyl)-5-cyano-1H-pyrrolo[2,3-c]pyridine-3-carboxamide], which AUC is on record?
**A.** BLQ
